From patent US5731334A, “Method for treating cancer using taxoid onium salt prodrugs” (priority 1995, dated 1998)

Experiments:
[1] = tested on: tubulin; test: Tubulin polymerization-depolymerization (microtubule assembly-disassembly) assay; type: biochemical, calf
[2] = tested on: RPMI-7666 blood lymphoblasts; test: XTT dye binding cytotoxicity assay, RPMI-7666; type: cell-based; conditions: Homo sapiens; RPMI-7666, blood lymphoblasts (untransformed); 72 h; read-out: IC50
Method: (§1) All cell lines described herein were obtained from the ATCC and maintained in media formulations as recommended by the supplier. The cell lines were tested for mycoplasma contamination prior to incubation at 37° C. in 5% carbon dioxide. Normal human dermal fibroblasts, peripheral blood lymphoblasts and mammary epithelial cells were obtained from Clonogenic Cor., San Diego, Calif. and were maintained under the above incubation conditions in special media provided by the supplier.
(§2) Antiproliferative activities of the onium salts were determined using the XTT dye binding assay. Cells were harvested with trypsin/EDTA (Irvine Scientific), washed, resuspended in the appropriate medium, and counted in a hemocytometer using Trypan Blue to determine viability. Then 10^4 cells/well were added to 96 well microtiter plates and incubated for 24 hours before addition of drug at concentrations in the range of 10^-4 to 10^-13 molar by direct addition from DMSO solutions. After 72 hours, XTT binding dye was added and incubation was continued for 4 hours. The inhibition of cell proliferation was quantified using a Molecular Devices Microplate Reader. The absorbance of XTT was measured at […]. The concentration of drug which inhibited growth of cells by 50% was calculated from duplicated determinations.

[3] = tested on: U-2511 CNS cancer cells; test: XTT dye binding cytotoxicity assay, U-2511; type: cell-based; conditions: Homo sapiens; U-2511, CNS cancer; 72 h; read-out: IC50
Method: as §1, §2

[4] = tested on: intact Molt-4 cells; test: Competition binding of tritiated compounds to intact Molt-4 cells; parameters: species or system human
Method: The competition by nonradioactive taxol or c-2'-MPA-taxol for the binding of 1×10^-9 M tritiated compounds by intact Molt-4 cells is illustrated in FIG. 3. Tritiated taxol (Moravek Corp.) was treated with 2-fluoropyridiunium tosylate according to the method of Nicolaou et al. to yield the C-2'-MPT-^3 H-taxol. (Angew. Chem., Int. Ed. 1994: vol. 34, pp. 1583-1587.) Six well plates were incubated with 10^6 Molt-4 cells in 50 mM phosphate buffered saline (PBS) or PRPMI media to which 10^-9 M of the radiolabeled taxol or taxol onium salt was added together with increasing concentrations of nonradiolabeled compound. After 30 minutes, the cells were centrifuged, washed with PBS and 1% SDS was added. […] Alternatively, the cells may be lysed by sonication.

[5] = Plasma stability and prodrug reversion (ethyl acetate extraction, HPLC); conditions: human, plasma
[6] = tested on: Ovcar 3 ovarian carcinoma tumor xenograft
Method: Athymic nude mice were purchased from Harlan-Sprague-Dawley. The animals were housed in microisolated cases under positive air pressure and all manipulations and drug treatments were performed in a laminar flow cabinet. Tumor cells were grown under the above tissue culture conditions. Cell suspensions in RPMI medium were injected S./C. Treatment was started one day after inoculation by i.p. injection of 400 μl drug solutions. Tumors were measured 3 times weekly in two dimensions, using calipers and tumor volume as calculated using the formula (V=w^2 ×L×(3.142).
The tumor model was generated from an ATTC Ovcar 3 carcinoma cell line that was maintained under standard cell proliferation conditions, viz. 37° C., 5% carbon dioxide in sterile air. Each cohort was comprised of eight randomly chosen female athymic nude mice, for a total population size of twenty four. Hemocytometer counted cells, suspended in Hanks medium (Gibco, Grand Island N.Y.) were implanted S.C. (10^6 cells in 0.4 mL per mouse). Solid tumor growth was measured on each third day. Equimolar amounts of the test compounds (1.0 mM, 400 μL) were injected i.p. on days 1, 3, 5, 7, 9, and 11 using the following media:
(.quadrature.): Control, saline in 5× distilled water (D5W) […]

[7] = tested on: tumor cell lines; test: Cytotoxicity, summary over tumor cell lines (XTT); type: cell-based, human and murine; conditions: on average
Method: Antiproliferative activities of the onium salts were determined using the XTT dye binding assay. Cells were harvested with trypsin/EDTA (Irvine Scientific), washed, resuspended in the appropriate medium, and counted in a hemocytometer using Trypan Blue to determine viability. […] After 72 hours, XTT binding dye was added and incubation was continued for 4 hours. The inhibition of cell proliferation was quantified using a Molecular Devices Microplate Reader. […] The concentration of drug which inhibited growth of cells by 50% was calculated from duplicated determinations.

[8] = Stability in water, assay medium and storage solution; type: physicochemical
Text: used and differing ultraviolet absorption maxima between the prodrug and the drug, the stability was easily assayed using UV detection. In all the ensuing studies, the only degradation products detected were the taxoids and the pyridinone that results from the hydrolysis of the onium salts. In water, these compounds show surprising stability for up to weeks depending upon the storage conditions. […] The fraction of ethyl acetated extractable material was between 18 and 23% for all onium salts and 95% for the present compounds.
FIG. 2 illustrates the results of GTP induced polymerization and calcium chloride induced depolymerization of tubulin in the presence of taxol and the 2'- and 7-MPA substituted derivatives.

[9] = tested on: Capan 1 pancreas cancer cells; test: XTT dye binding cytotoxicity assay, Capan 1; type: cell-based; conditions: Homo sapiens; Capan 1, pancreas cancer; 72 h; read-out: IC50
Method: as §1, §2

CC(=O)O[C@H]1C(=O)[C@@]2(C)[C@H]([C@H](OC(=O)c3ccccc3)[C@]3(O)C[C@H](OC(=O)[C@H](Oc4cccc[n+]4C)[C@@H](NC(=O)c4ccccc4)c4ccccc4)C(C)=C1C3(C)C)[C@]1(OC(C)=O)CO[C@@H]1C[C@@H]2O [Compound 2]
tubulin binding in words [1]: no tubulin binding
reversal to tubulin (calcium induced depolymerization) ([1]; CaCl2, 10^-6 M drug): about 70%
IC50 [2]: 0.131 µM
IC50 [3]: 0.86 µM
Kd ([4]; calculated from slopes of linear portions of curves in FIG. 3, read-out: binding constant): 3 µM
affinity in competition assays of intact cells, in words ([4]; relative to parent taxol): three orders of magnitude below that of the parent taxol
lower specific binding affinity than taxol ([4]; relative to taxol): approximately 1000 fold
half-life [5]: 2.4 min
recovery [5]: 21%
tumor growth inhibition, Ovcar-3 ([6]; 1.0 mM, 400 μL i.p. days 1, 3, 5, 7, 9, 11): complete inhibition of tumor growth
survival of animals, Ovcar-3 ([6]; in vivo): 100%
cytotoxicity relative to the C-7-isomer (3) [7]: about 10 fold
storage stability ([8]; 1-2% Tween #80 or Tween #20 with or without ethyl alcohol): stable and may stored without significant loss
stability under the assembly-disassembly conditions ([8]; HPLC analysis): completely stable
IC50 [9]: 0.0057 µM
